Measurements as given in ChEMBL document CHEMBL3585263, “Novel Octahydropyrrolo[3,4-c]pyrroles Are Selective Orexin-2 Antagonists: SAR Leading to a Clinical Candidate” (J Med Chem, 2015).
Values after ≈ are worked out from the molar mass of the structure shown. One block for each compound: values may come before it.

Key:
[1] = Physical stability of the compound at 75% relative humidity at 40 degC after 4 weeks by PXRD analysis; format: physicochemical; settings: 672 h
[2] = Oral bioavailability in Sprague-Dawley rat at 10 mg/kg; format: ADME, organism-based; settings: in vivo
Rattus norvegicus [3] = test: Effect on REM sleep time in rat electroencephalographic model at 1 to 30 mg/kg, po administered at onset of dark phase measured for 2 hrs by telemetry device; format: ADME, organism-based; settings: in vivo
[4] = Chemical stability of the compound in pH 10 carbonate buffer assessed as compound remaining at room temperature after 1 week by HPLC analysis; format: physicochemical; settings: read-out: Stability
[5] = Half life in Balb/c mouse at 1 mg/kg, iv; format: ADME, organism-based; settings: in vivo
[6] = Chemical stability of the compound assessed as compound remaining at ambient relative humidity at 80 degC after 4 weeks by HPLC analysis; format: physicochemical; settings: read-out: Stability
[7] = Oral bioavailability in Balb/c mouse at 10 mg/kg; format: ADME, organism-based; settings: in vivo
[8] = Oral bioavailability in beagle dog at 10 mg/kg; format: ADME, organism-based, Canis lupus familiaris; settings: in vivo
[9] = Chemical stability of the compound in pH 7.4 phosphate buffer assessed as compound remaining at 60 degC after 1 week by HPLC analysis; format: physicochemical; settings: read-out: Stability
[10] = Oral bioavailability in cynomolgus monkey at 10 mg/kg; format: ADME, organism-based, Macaca fascicularis; settings: in vivo
Plasma [11] = test: Plasma protein binding in rat at 1 uM after 6 hrs by equilibrium dialysis method; format: ADME, cell-free; settings: 6 h, 1 µM
[12] = Chemical stability of the compound in pH 10 carbonate buffer assessed as compound remaining at room temperature after 4 weeks by HPLC analysis; format: physicochemical; settings: read-out: Stability
Plasma [13] = test: Plasma protein binding in human at 1 uM after 6 hrs by equilibrium dialysis method; format: ADME, cell-free; settings: 6 h, 1 µM
[14] = Chemical stability of the compound in pH 10 carbonate buffer assessed as compound remaining at 60 degC after 1 week by HPLC analysis; format: physicochemical; settings: read-out: Stability
[15] = Chemical stability of the compound in pH 4 acetate buffer assessed as compound remaining at 60 degC after 1 week by HPLC analysis; format: physicochemical; settings: read-out: Stability
Rattus norvegicus [16] = test: Ex vivo OX2 receptor occupancy in Sprague-Dawley rat brain at 30 mg/kg, po after 15 mins by autoradiographic analysis; format: functional
[17] = Chemical stability of the compound in pH 7.4 phosphate buffer assessed as compound remaining at room temperature after 1 week by HPLC analysis; format: physicochemical; settings: read-out: Stability
[18] = Chemical stability of the compound in pH 4 acetate buffer assessed as compound remaining at room temperature after 1 week by HPLC analysis; format: physicochemical; settings: read-out: Stability
[19] = Volume of distribution at steady state in Sprague-Dawley rat at 10 mg/kg, po and 1 mg/kg, iv; format: ADME, organism-based; settings: in vivo, read-out: Vdss
Rattus norvegicus [20] = test: Ex vivo OX2 receptor occupancy in po dosed Sprague-Dawley rat brain after 15 mins by autoradiographic analysis; format: functional, organism-based
Orexin receptor type 2 [21] = target: T1, Orexin receptor type 2 (Rattus norvegicus, UniProt P56719); test: Binding affinity to rat OX2 receptor
T1 sequence (P56719 whole entry): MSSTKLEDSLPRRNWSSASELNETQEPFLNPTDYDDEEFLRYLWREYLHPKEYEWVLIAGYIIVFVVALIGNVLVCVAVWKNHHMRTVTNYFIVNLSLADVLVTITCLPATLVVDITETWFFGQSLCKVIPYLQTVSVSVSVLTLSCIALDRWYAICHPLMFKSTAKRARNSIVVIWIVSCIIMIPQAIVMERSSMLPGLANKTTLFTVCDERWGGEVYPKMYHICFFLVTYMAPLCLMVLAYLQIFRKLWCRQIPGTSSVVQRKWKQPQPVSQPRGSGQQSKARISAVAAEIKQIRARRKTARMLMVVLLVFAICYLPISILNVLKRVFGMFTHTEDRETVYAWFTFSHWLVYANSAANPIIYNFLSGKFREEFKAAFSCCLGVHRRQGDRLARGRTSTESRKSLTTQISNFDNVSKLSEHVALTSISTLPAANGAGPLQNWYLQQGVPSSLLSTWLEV

[22] = Half life in beagle dog at 1 mg/kg, iv; format: ADME, organism-based, Canis lupus familiaris; settings: in vivo
[23] = Chemical stability of the compound in pH 10 carbonate buffer assessed as compound remaining at 60 degC after 4 weeks by HPLC analysis; format: physicochemical; settings: read-out: Stability
Plasma [24] = test: Fraction unbound in rat plasma at 0.1 to 10 uM after 6 hrs by equilibrium dialysis method; format: ADME, cell-free
[25] = Half life in cynomolgus monkey at 1 mg/kg, iv; format: ADME, organism-based, Macaca fascicularis; settings: in vivo
[26] = Chemical stability of the compound in pH 2 phosphate buffer assessed as compound remaining at 60 degC after 4 weeks by HPLC analysis; format: physicochemical; settings: read-out: Stability
[27] = Chemical stability of the compound in pH 7.4 phosphate buffer assessed as compound remaining at room temperature after 4 weeks by HPLC analysis; format: physicochemical; settings: read-out: Stability
[28] = Physical stability of the compound at ambient relative humidity at 22 degC after 4 weeks by PXRD analysis; format: physicochemical; settings: 672 h
[29] = Chemical stability of the compound in pH 7.4 phosphate buffer assessed as compound remaining at 60 degC after 4 weeks by HPLC analysis; format: physicochemical; settings: read-out: Stability
[30] = Volume of distribution at steady state in Balb/c mouse at 10 mg/kg, po and 1 mg/kg, iv; format: ADME, organism-based; settings: in vivo, read-out: Vdss
[31] = Half life in Sprague-Dawley rat at 1 mg/kg, iv; format: ADME, organism-based; settings: in vivo
Rattus norvegicus [32] = test: Increase in NREM sleep time in po dosed rat electroencephalographic model administered at onset of dark phase measured for 2 hrs by telemetry device; format: functional, organism-based
[33] = Clearance in Balb/c mouse at 10 mg/kg, po and 1 mg/kg, iv; format: ADME, organism-based; settings: in vivo
[34] = Chemical stability of the compound in pH 2 phosphate buffer assessed as compound remaining at room temperature after 1 week by HPLC analysis; format: physicochemical; settings: read-out: Stability
[35] = Chemical stability of the compound in pH 4 acetate buffer assessed as compound remaining at room temperature after 4 weeks by HPLC analysis; format: physicochemical; settings: read-out: Stability
[36] = Chemical stability of the compound in pH 4 acetate buffer assessed as compound remaining at 60 degC after 4 weeks by HPLC analysis; format: physicochemical; settings: read-out: Stability
[37] = Fraction unbound in cynomolgus monkey plasma at 0.1 to 10 uM after 6 hrs by equilibrium dialysis method; format: ADME, cell-free, Macaca fascicularis
[38] = Chemical stability of the compound in pH 2 phosphate buffer assessed as compound remaining at 60 degC after 1 week by HPLC analysis; format: physicochemical; settings: read-out: Stability
[39] = Clearance in beagle dog at 10 mg/kg, po and 1 mg/kg, iv; format: ADME, organism-based, Canis lupus familiaris; settings: in vivo
[40] = Fraction unbound in mouse plasma at 0.1 to 10 uM after 6 hrs by equilibrium dialysis method; format: ADME, cell-free
[41] = Chemical stability of the compound assessed as compound remaining at 75% relative humidity at 40 degC after 4 weeks by HPLC analysis; format: physicochemical; settings: read-out: Stability
Rattus norvegicus [42] = test: Reduction in NREM sleep latency in po dosed rat electroencephalographic model administered at onset of dark phase by telemetry device; format: functional, organism-based
[43] = Clearance in Sprague-Dawley rat at 10 mg/kg, po and 1 mg/kg, iv; format: ADME, organism-based; settings: in vivo
[44] = Volume of distribution at steady state in cynomolgus monkey at 10 mg/kg, po and 1 mg/kg, iv; format: ADME, organism-based, Macaca fascicularis; settings: in vivo, read-out: Vdss
[45] = Fraction unbound in beagle dog plasma at 0.1 to 10 uM after 6 hrs by equilibrium dialysis method; format: ADME, cell-free, Canis lupus familiaris
[46] = Chemical stability of the compound in pH 2 phosphate buffer assessed as compound remaining at room temperature after 4 weeks by HPLC analysis; format: physicochemical; settings: read-out: Stability
[47] = Physical stability of the compound at ambient relative humidity at 80 degC after 4 weeks by PXRD analysis; format: physicochemical; settings: 672 h
[48] = Chemical stability of the compound assessed as compound remaining at ambient relative humidity at 22 degC after 4 weeks by HPLC analysis; format: physicochemical; settings: read-out: Stability
[49] = Clearance in cynomolgus monkey at 10 mg/kg, po and 1 mg/kg, iv; format: ADME, organism-based, Macaca fascicularis; settings: in vivo
[50] = Volume of distribution at steady state in beagle dog at 10 mg/kg, po and 1 mg/kg, iv; format: ADME, organism-based, Canis lupus familiaris; settings: in vivo, read-out: Vdss
[51] = Protein binding in rat brain at 5 uM after 5 hrs by equilibrium dialysis method; format: ADME, tissue-based; settings: read-out: PB (converted)
Plasma [52] = test: Fraction unbound in human plasma at 0.1 to 10 uM after 6 hrs by equilibrium dialysis method; format: ADME, cell-free
[53] = target: T2, Orexin/Hypocretin receptor type 1 (Homo sapiens, UniProt O43613); test: Binding affinity to human OX1 receptor expressed in CHO cell membranes by scintillation counting analysis
T2 sequence (O43613 whole entry): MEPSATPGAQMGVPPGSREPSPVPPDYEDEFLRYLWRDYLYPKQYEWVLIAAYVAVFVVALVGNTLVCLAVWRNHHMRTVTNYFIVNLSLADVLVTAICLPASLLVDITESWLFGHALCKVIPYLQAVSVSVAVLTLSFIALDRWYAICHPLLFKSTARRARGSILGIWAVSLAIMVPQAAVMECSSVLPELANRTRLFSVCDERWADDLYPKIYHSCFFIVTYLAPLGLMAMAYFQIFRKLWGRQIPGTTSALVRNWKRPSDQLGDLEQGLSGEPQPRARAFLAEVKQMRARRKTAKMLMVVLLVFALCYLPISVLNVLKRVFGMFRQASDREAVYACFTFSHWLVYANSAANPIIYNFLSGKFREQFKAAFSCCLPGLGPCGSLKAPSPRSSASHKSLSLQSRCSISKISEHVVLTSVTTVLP

Orexin receptor type 2 [54] = target: T3, Orexin receptor type 2 (Homo sapiens, UniProt O43614); test: Binding affinity to human OX2 receptor
T3 sequence (O43614 whole entry): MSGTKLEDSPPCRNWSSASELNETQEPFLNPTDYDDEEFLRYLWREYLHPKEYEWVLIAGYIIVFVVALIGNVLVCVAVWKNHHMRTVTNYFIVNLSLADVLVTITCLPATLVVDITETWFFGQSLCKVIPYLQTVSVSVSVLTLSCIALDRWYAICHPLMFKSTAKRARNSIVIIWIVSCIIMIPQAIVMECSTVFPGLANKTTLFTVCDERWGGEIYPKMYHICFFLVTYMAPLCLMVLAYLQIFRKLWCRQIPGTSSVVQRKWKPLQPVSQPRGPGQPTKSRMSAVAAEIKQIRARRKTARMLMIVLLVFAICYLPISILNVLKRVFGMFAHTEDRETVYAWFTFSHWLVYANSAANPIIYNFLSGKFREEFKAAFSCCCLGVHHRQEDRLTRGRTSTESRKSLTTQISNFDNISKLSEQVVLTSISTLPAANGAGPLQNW

Orexin receptor type 2 [55] = target: T3, Orexin receptor type 2; test: Displacement of [3H]EMPA from human OX2 receptor expressed in human PFSK-1 cells; format: cell-based
[56] = target: T2, Orexin/Hypocretin receptor type 1; test: Binding affinity to human OX1 receptor

Stability [1]: Stable
bioavailability [2]: 24%
remaining at 168 h [4]: 101%
half-life [5]: 12 min
remaining at 672 h [6]: 100%
bioavailability [7]: 16%
bioavailability [8]: 19%
remaining at 168 h [9]: 102%
bioavailability [10]: 6%
PPB (Plasma [11]): 92.7%
remaining at 672 h [12]: 102%
PPB (Plasma [13]): 95.9%
remaining at 168 h [14]: 102%
remaining at 168 h [15]: 99.4%
remaining at 168 h [17]: 101%
remaining at 168 h [18]: 99.7%
Vd [19]: 0.7 L/kg
EC50 (Rattus norvegicus [20]): 0.171 µg/mL (≈ 0.42 µM)
Occ (Rattus norvegicus [20]): Dose-dependent effect
Ki (Orexin receptor type 2 [21]): 10 nM
half-life [22]: 66 min
remaining at 672 h [23]: 102%
Fu (Plasma [24]): 5.6%
half-life [25]: 24 min
remaining at 672 h [26]: 101%
remaining at 672 h [27]: 103%
Stability [28]: Stable
remaining at 672 h [29]: 99.8%
Vd [30]: 0.6 L/kg
half-life [31]: 18 min
clearance [33]: 36 mL/min/kg
remaining at 168 h [34]: 100%
remaining at 672 h [35]: 101%
remaining at 672 h [36]: 102%
fraction unbound at 6 h [37]: 0.044
remaining at 168 h [38]: 101%
clearance [39]: 9.8 mL/min/kg
fraction unbound at 6 h [40]: 0.041
remaining at 672 h [41]: 100%
clearance [43]: 40 mL/min/kg
Vd [44]: 0.4 L/kg
fraction unbound at 6 h [45]: 0.096
remaining at 672 h [46]: 102%
Stability [47]: Stable
remaining at 672 h [48]: 100%
clearance [49]: 16 mL/min/kg
Vd [50]: 0.7 L/kg
fraction unbound at 5 h, 5 µM [51]: 0.119
Fu (Plasma [52]): 2.9%
SMILES: Cc1cc(C)nc(N2C[C@H]3CN(C(=O)c4c(F)cccc4-n4nccn4)C[C@H]3C2)n1 [SELTOREXANT]
Activity (Rattus norvegicus [3]): Non-toxic
Occ (Rattus norvegicus [16]): 71%
ED50 (Rattus norvegicus [20]; po): 3 mg/kg
Activity (Rattus norvegicus [32]): Dose-dependent effect
Activity (Rattus norvegicus [42]): Dose-dependent effect

Ki [53]: 216 nM
SMILES: COc1cccc(OC)c1C(=O)N1CCCN(c2nc3ccc(Cl)cc3s2)CC1

Ki (Orexin receptor type 2 [54]): 2200 nM
Ki (Orexin receptor type 2 [55]): 1600 nM
Ki [56]: 6850 nM
SMILES: COc1cccc(OC)c1C(=O)N1C[C@@H]2CN(c3nc4ccc(Cl)cc4s3)C[C@@H]2C1
